From patent publication US20160256472A1, “COMPOSITIONS AND METHODS OF ADMINISTERING SAME” (PALMAYA PTY LTD, priority 2013, published 2016)
“Also recorded” adds a separate entry of the source.

Key:
[1] = tested on: craving and craving anxiety for smoking, alcohol or drug use; assay: Pilot study case reports: craving and craving anxiety after rapid (nasal/sublingual) delivery of micro-doses; type: in vivo, human; conditions: Example 7: bupropion 250 micrograms added, nasal delivery
Procedure: About 40-50 minutes later the craving anxiety for smoking started to climb.
Their craving for smoking and alcohol were linked making smoking more severe during times of alcohol use.
This profound change depends on them giving themself one or two doses before getting out of bed in the morning as this is the most severe craving in the day.
They averaged 20 doses per day.

[2] = cited from earlier work
[3] = in vivo; cited from earlier work
[4] = Oral naltrexone absorption and presence in blood stream; conditions: standard oral administration, one off dose of 50 mg per day
From the text: As with all addictions, craving anxiety builds and is then reduced at the time of drug use or when the habit is repeated. The cycle then repeats itself. Craving may present itself with anxiety or in some cases presents itself where the individual places himself in a risky situation or searches for the substance or opportunity for the substance or event.

[5] = oral dosage form, 50 mg per day; cited from earlier work
smoking addiction = conditions: Cochrane review; cited from earlier work

CC(NC(C)(C)C)C(=O)c1cccc(Cl)c1 (stereo not shown) [bupropion]
effect of bupropion on the effectiveness of the flumazenil/naltrexone combination [1]: maximise the effectiveness

CCOC(=O)c1ncn2c1CN(C)C(=O)c1cc(F)ccc1-2 [flumazenil]
side effects ([2]; intravenous flumazenil, literature): panic attacks or fitting
safe dose ([2]; intravenous injection, recorded by Mims): up to 100 mg
half-life [3]: less than one

O=C1CC[C@@]2(O)[C@H]3Cc4ccc(O)c5c4[C@@]2(CCN3CC2CC2)[C@H]1O5 [naltrexone]
time naltrexone is undetectable in the blood stream [4]: 18 hours a day
time after administration at which oral naltrexone disappears from the blood stream [5]: six
efficacy in smoking addiction / smoking cessation (smoking addiction): does not give any evidence of smoking cessation; also recorded: not effective
